How the values were obtained:
[1] = system: Matrix Metalloprotease 9 (MMP-9) activity in HTR8/SVneo cells; experiment: TNF-α-induced MMP-9 activity (zymography); assay type: cell-based; conditions: for reduction of TNFα-induced MMP-9 activity compared to stimulated controls: MPA pre-treatment
Description: FIGS. 4A-4C show the effect of knocking down PGRMC1 expression on the efficacy of medroxyprogesterone acetate (MPA) pretreatment in HTR8/SVneo cells.
(§1) Progesterone treatment also blunted TNF α-mediated induction of metalloproteinase 9 (MMP-9) activity (data not shown).
The inhibitory effect of MPA pre-treatment on TNFα-induced activity was diminished when compared to cells treated with the scramble siRNA group (see FIGS. 4B&4C). […] However, in the PGRMC1 siRNA group this effect was lost with MPA pre-treatment reducing MMP-9 activity to a lesser degree when compared with stimulated controls (15%, p=0.100). Both the unstimulated (vehicle) control and the MPA groups are shown in the zymogram. The relative MMP-9 activity represents activity in excess of baseline for each experimental group. The unstimulated (vehicle) control only is represented graphically for both siRNA treatments. Experiments were replicated on 5 separate occasions. Data are mean+standard error of the mean.

[2] = women with a history of spontaneous preterm birth; weekly intramuscular injection; cited from earlier work
[3] = women at risk based on shortened cervical length; vaginal; cited from earlier work
PGRMC1 = PGRMC1 (Homo sapiens, UniProt O00264); conditions: cited from earlier work
Chain of PGRMC1 (O00264 whole entry): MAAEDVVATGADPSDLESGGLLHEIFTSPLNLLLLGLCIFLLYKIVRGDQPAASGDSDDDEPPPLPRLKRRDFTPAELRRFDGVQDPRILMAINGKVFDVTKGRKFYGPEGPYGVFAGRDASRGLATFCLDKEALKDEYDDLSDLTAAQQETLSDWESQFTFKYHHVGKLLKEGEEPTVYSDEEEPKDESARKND

caspase 3 cleavage = experiment: Caspase 3 cleavage following treatment with calcimycin; assay type: cell-based; conditions: data not shown
HTR8/Sv cells = experiment: Calcimycin-induced apoptotic cell death, CELLTITER 96 Aqueous Non-Radioactive Cell Proliferation Assay; assay type: cell-based; conditions: pretreatment of HTR8/Sv cells; FIG. 1
Description: FIGS. 1A-1B are A) Western blot and B) graph showing calcium-induced cytrotrophoblast apoptotic cell death reduction by progesterone (R5020) pretreatment.
as §1

## CC(=O)O[C@]1(C(C)=O)CC[C@H]2[C@@H]3C[C@H](C)C4=CC(=O)CC[C@]4(C)[C@H]3CC[C@@]21C [MPA, medroxyprogesterone acetate]
[1]; PGRMC1 siRNA group, p=0.100
  reduction of TNFα-induced MMP-9 activity compared to stimulated controls: 15%
[1]; scramble siRNA group, p<0.008
  reduction of TNFα-induced MMP-9 activity compared to stimulated controls: 45%

## CCCCCC(=O)O[C@]1(C(C)=O)CC[C@H]2[C@@H]3CCC4=CC(=O)CC[C@]4(C)[C@H]3CC[C@@]21C [17-OHPC, 17 alpha hydroxyprogesterone caproate]
[2]
  reduction in preterm birth rates: 35%

## CC(=O)[C@H]1CC[C@H]2[C@@H]3CCC4=CC(=O)CC[C@]4(C)[C@H]3CC[C@]12C [Progesterone, progesterone]
[1]; data not shown
  TNF α-mediated induction of MMP-9 activity: blunted
[3]
  reduction of the risk of preterm birth: 45%

## CCC(=O)[C@@]1(C)CC[C@H]2[C@@H]3CCC4=CC(=O)CCC4=C3CC[C@@]21C [R5020]
PGRMC1
  binding to PGRMC1: high binding
Caspase 3 cleavage
  caspase 3 cleavage following treatment with calcimycin: lower caspase 3 cleavage
HTR8/Sv cells
  protection against calcium-ionophore calcimycin-induced apoptotic cell death: protected the cells
